Experiment: recombinant UMI read abundance after kanamycin selection (control-corrected) (log10(CPM+1)); higher = more efficient recombination; extreme values may be limits of the assay; sequences stand for … in AGTGCAGAGAAAATCGGCCAGTTTTCTCTGCCTGCAGTCCGCATGCCGTGGGACCCCTTGGGTTCTAACCTGTTGCCTAGATTTATGCAGCGGACTGCCTTTCTCCCAAAGTGATAAACCGG…AGGTTGGTTTCACT; site = the 11-nt donor
Outline: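 Sequencing read counts were converted to CPM, averaged over two replicates and scaled by control-derived factors. Results are given as log10(CPM+1). The reads covered the donor–target junction of recombinant UMIs from a pooled Escherichia coli screen of donor and donor-binding-loop pairs for the IS621 bridge recombinase.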
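Further: IS621 bridge recombinase in Escherichia coli cells against a fixed T5 target plasmid.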

Sequence	recombinant UMI read abundance (log10)
ATCCAGGCATGGACCGGTTTTCCCGGTAATCCGTATTTGCC (site ATCCAGGCTGG)	0
ATCCATACATGGACCGGTTTTCCCGGTAATCCGTATTTGAC (site ATCAATACTGT)	0
ATCCATACATGGACCGGTTTTCCCGGTAATCCGTATTTGAC (site ATCCATACTGT)	1.77
ATCCATACATGGACCGGTTTTCCCGGTAATCCGTATTTGAC (site ATCGATACTGT)	0
ATCCATACATGGACCGGTTTTCCCGGTAATCCGTATTTGAC (site ATCTATACTGT)	0
ATCCCCTCATGGACCGGTTTTCCCGGTAATCCGTATTTGGA (site ATCCCCTCTTC)	1.95
ATCCCGGCATGGACCGGTTTTCCCGGTAATCCGTATTTGAG (site CGAAGCCCTAG)	0
ATCCGACCATGGACCGGTTTTCCCGGTAATCCGTATTTGTC (site ATCCGACCTGA)	0
ATCCTTTCATGGACCGGTTTTCCCGGTAATCCGTATTTGAC (site AACCTTTCTGT)	0
ATCCTTTCATGGACCGGTTTTCCCGGTAATCCGTATTTGAC (site ACCCTTTCTGT)	0
ATCCTTTCATGGACCGGTTTTCCCGGTAATCCGTATTTGAC (site AGCCTTTCTGT)	0
ATCCTTTCATGGACCGGTTTTCCCGGTAATCCGTATTTGAC (site ATCCTTTCTGT)	0
ATCGAATCATGGACCGGTTTTCCCGGTAATCCGTATTTGAA (site ATCGAATCTTT)	2.58
ATCGCCTCATGGACCGGTTTTCCCGGTAATCCGTATTTGGG (site ATCGCCTCTCC)	0.29
ATCGCGTCATGGACCGGTTTTCCCGGTAATCCGTATTTGAA (site ATCGCGTCTTT)	2.01
ATCGTGCCATGGACCGGTTTTCCCGGTAATCCGTATTTGTT (site ATCGTGCCTAA)	0.0076
ATCTAAACATGGACCGGTTTTCCCGGTAATCCGTATTTGAC (site ATCTAAACTGT)	2.72
ATCTAAACATGGACCGGTTTTCCCGGTAATCCGTATTTGAC (site ATCTACACTGT)	0.25
ATCTAAACATGGACCGGTTTTCCCGGTAATCCGTATTTGAC (site ATCTAGACTGT)	0
ATCTAAACATGGACCGGTTTTCCCGGTAATCCGTATTTGAC (site ATCTATACTGT)	0.00453
ATCTACACATGGACCGGTTTTCCCGGTAATCCGTATTTGAC (site ATCTAAACTGT)	1.21
ATCTACACATGGACCGGTTTTCCCGGTAATCCGTATTTGAC (site ATCTACACTGT)	2.83
ATCTACACATGGACCGGTTTTCCCGGTAATCCGTATTTGAC (site ATCTAGACTGT)	0

Sequence	recombinant UMI read abundance (log10)
ATCTACACATGGACCGGTTTTCCCGGTAATCCGTATTTGAC (site ATCTATACTGT)	0.824
ATCTAGACATGGACCGGTTTTCCCGGTAATCCGTATTTGAG (site ATCTAGACTCT)	1.31
ATCTAGGCATGGACCGGTTTTCCCGGTAATCCGTATTTGGC (site ATATAGGCTGC)	0
ATCTAGGCATGGACCGGTTTTCCCGGTAATCCGTATTTGGC (site ATCTAGGCTGC)	0
ATCTAGGCATGGACCGGTTTTCCCGGTAATCCGTATTTGGC (site ATGTAGGCTGC)	0
ATCTAGGCATGGACCGGTTTTCCCGGTAATCCGTATTTGGC (site ATTTAGGCTGC)	0
ATCTATACATGGACCGGTTTTCCCGGTAATCCGTATTTGAG (site ATCTATACTAT)	0.478
ATCTATACATGGACCGGTTTTCCCGGTAATCCGTATTTGAG (site ATCTATACTCT)	1.31
ATCTATACATGGACCGGTTTTCCCGGTAATCCGTATTTGAG (site ATCTATACTGT)	0
ATCTATACATGGACCGGTTTTCCCGGTAATCCGTATTTGAG (site ATCTATACTTT)	0.0268
ATCTATACATGGACCGGTTTTCCCGGTAATCCGTATTTGGC (site ATCTATACTGA)	1.09
ATCTATACATGGACCGGTTTTCCCGGTAATCCGTATTTGGC (site ATCTATACTGC)	2.23
ATCTATACATGGACCGGTTTTCCCGGTAATCCGTATTTGGC (site ATCTATACTGG)	0
ATCTATACATGGACCGGTTTTCCCGGTAATCCGTATTTGGC (site ATCTATACTGT)	2.09
ATCTGTACATGGACCGGTTTTCCCGGTAATCCGTATTTGAC (site ATCTATACTGT)	0
ATCTGTACATGGACCGGTTTTCCCGGTAATCCGTATTTGAC (site ATCTCTACTGT)	0
ATCTGTACATGGACCGGTTTTCCCGGTAATCCGTATTTGAC (site ATCTGTACTGT)	1.31
ATCTGTACATGGACCGGTTTTCCCGGTAATCCGTATTTGAC (site ATCTTTACTGT)	0
ATCTGTCCATGGACCGGTTTTCCCGGTAATCCGTATTTGAT (site ATCTGTCCTAT)	0.0326
ATGAAGGCATGGACCGGTTTTCCCGGTAATCCGTATTTGCA (site AGGAAGACTTG)	0.763
ATGAAGGCATGGACCGGTTTTCCCGGTAATCCGTATTTGCA (site ATGAAGGCTTG)	2.91
ATGACACCATGGACCGGTTTTCCCGGTAATCCGTATTTGGT (site ATGACACCTAC)	0.0397
ATGATCCCATGGACCGGTTTTCCCGGTAATCCGTATTTGCC (site ATGATCCCTGG)	0

Sequence	recombinant UMI read abundance (log10)
ATGCACGCATGGACCGGTTTTCCCGGTAATCCGTATTTGGG (site AAGCACGCTCC)	0.017
ATGCACGCATGGACCGGTTTTCCCGGTAATCCGTATTTGGG (site ACGCACGCTCC)	0.0179
ATGCACGCATGGACCGGTTTTCCCGGTAATCCGTATTTGGG (site AGGCACGCTCC)	0.0274
ATGCACGCATGGACCGGTTTTCCCGGTAATCCGTATTTGGG (site ATGCACGCTCC)	0.239
ATGCAGCCATGGACCGGTTTTCCCGGTAATCCGTATTTGAG (site ATGCAGCCTCT)	0.00247
ATGCCCGCATGGACCGGTTTTCCCGGTAATCCGTATTTGCA (site ATGCCCGCTTG)	2.01
ATGCCGACATGGACCGGTTTTCCCGGTAATCCGTATTTGCA (site ATGCCGACTTG)	1.91
ATGCGAGCATGGACCGGTTTTCCCGGTAATCCGTATTTGCT (site ATGCGAGCTAG)	2.5
ATGCTTGCATGGACCGGTTTTCCCGGTAATCCGTATTTGCT (site ATGCTTGCTAG)	0.679
ATGGAAACATGGACCGGTTTTCCCGGTAATCCGTATTTGCA (site ATGGAAACTTG)	2.32
ATGGAAACATGGACCGGTTTTCCCGGTAATCCGTATTTGCA (site CTGGAAACTTG)	1.6
ATGGAAACATGGACCGGTTTTCCCGGTAATCCGTATTTGCA (site GTGGAAACTTG)	0
ATGGAAACATGGACCGGTTTTCCCGGTAATCCGTATTTGCA (site TTGGAAACTTG)	0.684
ATGGCATCATGGACCGGTTTTCCCGGTAATCCGTATTTGCG (site ATGGCATCTCG)	2.06
ATGGCATCATGGACCGGTTTTCCCGGTAATCCGTATTTGCT (site ATGGCATCTAG)	1.83
ATGGCCGCATGGACCGGTTTTCCCGGTAATCCGTATTTGGC (site ATGGCCGCTGC)	2.53
ATGGTCCCATGGACCGGTTTTCCCGGTAATCCGTATTTGAC (site ATGGTCCCTGT)	1.87
ATGGTCGCATGGACCGGTTTTCCCGGTAATCCGTATTTGAC (site ATGGTCGCTGT)	3.13
ATGTACACATGGACCGGTTTTCCCGGTAATCCGTATTTGAG (site ATGTACACTCT)	1.6
ATGTAGGCATGGACCGGTTTTCCCGGTAATCCGTATTTGGT (site ATGTAGGCTAC)	1.27
ATGTAGGCATGGACCGGTTTTCCCGGTAATCCGTATTTGGT (site ATGTAGGCTCC)	0.0125
ATGTAGGCATGGACCGGTTTTCCCGGTAATCCGTATTTGGT (site ATGTAGGCTGC)	1.73

Reference: the supplement of paper PMC11208160
